Results as given in patent US9850247B2 (Almac Discovery Limited, priority 2013, dated 2017).

How the values were obtained:
Wee-1 kinase = target: T1, Wee-1 kinase (Homo sapiens, UniProt P30291); assay: Measurement of Wee-1 kinase activity (ADP-Glo luminescent kit); format: biochemical
T1 construct: purchased Invitrogen PV3817
Procedure: Method 1: Measurement of Wee-1 Kinase Activity
In the measurement of Wee-1 activity, a commercial peptide Poly(Lys Tyr (4:1)) hydrobromide was purchased from Sigma Aldrich and used as the substrate. Activated Wee-1 kinase was purchased from Invitrogen (PV3817) and an ADP-Glo luminescent kit was purchased from Promega.
All reactions took place in […] volumes in reaction buffer containing 40 mM Tris-HCl and 20 mM magnesium chloride, supplemented with 0.1 mg/mL bovine serum albumin and 2 mM DTT. Compounds were serially diluted in buffer and 5 μL of each concentration pipetted into a white 384 well plate (Sigma Aldrich M6186). A 5 μL aliquot of the Wee-1 enzyme was added to each well and the plate centrifuged for 1 min to ensure mixing of the enzyme and inhibitor.
The plate was incubated at room temperature for 30 minutes before the addition of 2.0 μg/mL of substrate and 30 μM ATP in a 5 μL aliquot. The plate was centrifuged for one minute and incubated for 1 h at RT.
15 µL of ADP-Glo stop reagent was added to each well to quench the reaction and deplete unconverted ATP. The plate was incubated for a further 40 min in the dark at RT.
30 μL of ADP-Glo kinase detection reagent was added to each well, converting ADP to ATP, catalysing the generation of luciferin by luciferase. The plate was shaken for 1 min, and incubated in the dark for an additional hour.
Luminescence from each well was detected using the Biotek Synergy4 HD plate reader and the percentage inhibition of kinase activity calculated for each inhibitor tested. Positive (kinase only) and negative (no kinase) controls were added to each plate to ensure specific interaction of kinase and inhibitor. The IC50 concentration for each inhibitor was calculated by plotting the percentage kinase inhibition against concentration of inhibitor and the curve generated by non-linear regression fitting.

[1] = CLint estimates using human liver microsomes (Method 4); format: in vitro ADME; settings: pH 7.4, 1 μM compound, read-out: Mics - CLint (HLM CLint)
Procedure: Method 4: Determination of CLint Estimates Using Human liver microsomes Test compounds (final concentration=1 μM; final DMSO concentration=0.1%) were incubated in 0.1 M phosphate buffer pH 7.4 with human liver microsomes (0.5 mg of protein/mL) at 37° C. Reactions were started by addition of NADPH in 0.1 M phosphate buffer pH 7.4 (final concentration 1 mM). 40 μL aliquots were removed at 2, 5, 10, 15, 20, 30, 40 and 50 min. Reactions were quenched in 80 μL of ice-cold methanol. Samples were subsequently frozen overnight then centrifuged at 3500 rpm for 20 min at 4° C. The supernatants were removed and transferred into analytical plates and analysed by LC/MS/MS. LC/MS/MS Method: All samples were analysed on a Waters Acquity I-Class coupled to a Waters Xevo TQD mass spectrometer. A Waters BEH C18 2.1×50 mm 1.7 μm column was used and mobile phases were water and methanol containing 0.1% formic acid as modifier. Analysis was by multiple reaction monitoring and conditions were optimised for each test compound. Data Analyses: From a plot of 1n peak area against time, the gradient of the line is determined. Subsequently, half-life and intrinsic clearance are calculated using the following equations. [formula] [formula] [formula] where V=Incubation volume (μL)/number of cells Method 5: Determination of Kinetic Solubility (in PBS Buffer)

T1 sequence (P30291 whole entry): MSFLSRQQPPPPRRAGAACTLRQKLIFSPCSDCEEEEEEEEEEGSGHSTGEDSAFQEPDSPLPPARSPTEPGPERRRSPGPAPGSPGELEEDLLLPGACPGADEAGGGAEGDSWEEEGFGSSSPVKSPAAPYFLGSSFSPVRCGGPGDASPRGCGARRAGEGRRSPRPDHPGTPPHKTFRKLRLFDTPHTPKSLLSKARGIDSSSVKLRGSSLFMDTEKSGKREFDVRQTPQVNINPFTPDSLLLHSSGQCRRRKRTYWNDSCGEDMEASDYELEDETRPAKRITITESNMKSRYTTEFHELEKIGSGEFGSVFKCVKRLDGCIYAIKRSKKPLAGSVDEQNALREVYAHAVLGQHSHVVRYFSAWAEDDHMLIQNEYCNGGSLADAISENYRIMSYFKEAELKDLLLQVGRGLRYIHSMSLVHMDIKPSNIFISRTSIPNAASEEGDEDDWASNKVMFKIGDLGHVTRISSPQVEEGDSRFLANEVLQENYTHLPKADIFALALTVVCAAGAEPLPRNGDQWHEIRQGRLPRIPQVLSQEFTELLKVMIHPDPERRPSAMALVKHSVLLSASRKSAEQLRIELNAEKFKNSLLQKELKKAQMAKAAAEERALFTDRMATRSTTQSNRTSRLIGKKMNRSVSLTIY

Row | IC50 (Wee-1 kinase) | microsomal CLint at 1 μM [1] | Structure (SMILES)
1 | 10 to 100 nM | 15 to 50 µL/min/mg | CN1CC2CN(c3ccc(Nc4ncc5c(n4)N(C)CN(c4c(Cl)cccc4Cl)C5=O)cc3)CC2C1 (stereo not drawn) [Example 35, 3-(2,6-dichlorophenyl)-1-methyl-7-((4-(5-methylhexahydropyrrolo[3,4-c]pyrrol-2(1H)-yl)phenyl)amino)-2,3-dihydropyrimido[4,5-d]pyrimidin-4(1H)-one]
2 | 10 to 100 nM | 15 to 50 µL/min/mg | CN1CN(c2c(Cl)cccc2Cl)C(=O)c2cnc(Nc3ccc(N4CCN5CCOC[C@@H]5C4)c(CO)c3)nc21 [Example 133, (S)-3-(2,6-dichlorophenyl)-7-((4-(hexahydropyrazino[2,1-c][1,4]oxazin-8(1H)-yl)-3-(hydroxymethyl)phenyl)amino)-1-methyl-2,3-dihydropyrimido[4,5-d]pyrimidin-4(1H)-one]
3 | ≥ 100 nM | 15 to 50 µL/min/mg | COCCN1CCN(c2ccc(Nc3ncc4c(n3)N(C)CN(c3c(Cl)cccc3Cl)C4=O)cc2)CC1 [Example 120, 3-(2,6-dichlorophenyl)-7-((4-(4-(2-methoxyethyl)piperazin-1-yl)phenyl)amino)-1-methyl-2,3-dihydropyrimido[4,5-d]pyrimidin-4(1H)-one]
4 | 10 to 100 nM | 15 to 50 µL/min/mg | C[C@@H]1CN(c2ccc(Nc3ncc4c(n3)N(C)CN(c3c(Cl)cccc3Cl)C4=O)cc2C(F)F)CCN1 [Example 139, (R)-3-(2,6-dichlorophenyl)-7-((3-(difluoromethyl)-4-(3-methylpiperazin-1-yl)phenyl)amino)-1-methyl-2,3-dihydropyrimido[4,5-d]pyrimidin-4(1H)-one]
5 | 10 to 100 nM | 15 to 50 µL/min/mg | CN1CN(c2c(Cl)cccc2Cl)C(=O)c2cnc(Nc3ccc(C4(N)CCC4)cc3)nc21 [Example 37, 7-((4-(1-aminocyclobutyl)phenyl)amino)-3-(2,6-dichlorophenyl)-1-methyl-2,3-dihydropyrimido[4,5-d]pyrimidin-4(1H)-one]
6 | 10 to 100 nM | 15 to 50 µL/min/mg | CN1CN(c2c(Cl)cccc2Cl)C(=O)c2cnc(Nc3ccc(N4CC5CNCC5C4)cc3)nc21 (stereo not drawn) [Example 36, 3-(2,6-dichlorophenyl)-7-((4-(hexahydropyrrolo [3,4-c]pyrrol-2(1H)-yl)phenyl)amino)-1-methyl-2,3-dihydropyrimido[4,5-d]pyrimidin-4(1H)-one]
7 | 10 to 100 nM | ≤ 15 µL/min/mg | COCc1cc(Nc2ncc3c(n2)N(C)CN(c2ccccc2Cl)C3=O)ccc1N1CCNCC1 [Example 108, 3-(2-chlorophenyl)-7-((3-(methoxymethyl)-4-(piperazin-1-yl)phenyl)amino)-1-methyl-2,3-dihydropyrimido[4,5-d]pyrimidin-4(1H)-one]
8 | 10 to 100 nM | ≤ 15 µL/min/mg | C[C@@H]1CN(c2ccc(Nc3ncc4c(n3)N(C)CN(c3c(Cl)cccc3Cl)C4=O)cc2OC(F)F)CCN1 [Example 132, (R)-3-(2,6-dichlorophenyl)-7-((3-(difluoromethoxy)-4-(3-methylpiperazin-1-yl)phenyl)amino)-1-methyl-2,3-dihydropyrimido[4,5-d]pyrimidin-4(1H)-one]
9 | ≤ 10 nM | ≤ 15 µL/min/mg | Cc1cc(Nc2ncc3c(n2)N(C)CN(c2c(Cl)cccc2Cl)C3=O)ccc1N1C[C@@H]2C[C@H]1CN2 [Example 75, 7-((4-((1S,4S)-2,5-diazabicyclo[2.2.1]heptan-2-yl)-3-methylphenyl)amino)-3-(2,6-dichlorophenyl)-1-methyl-2,3-dihydropyrimido[4,5-d]pyrimidin-4(1H)-one]
10 | 10 to 100 nM | – | CN1CN(c2c(Cl)cccc2Cl)C(=O)c2cnc(Nc3ccc(N4CC5(CNC5)C4)cc3)nc21 [Example 51, 7-((4-(2,6-diazaspiro[3.3]heptan-2-yl)phenyl)amino)-3-(2,6-dichlorophenyl)-1-methyl-2,3-dihydropyrimido[4,5-d]pyrimidin-4(1H)-one]
11 | 10 to 100 nM | – | COCc1cc(Nc2ncc3c(n2)N(C)CN(c2c(Cl)cccc2Cl)C3=O)ccc1N1CCN(C)CC1 [Example 69]
12 | 10 to 100 nM | – | COCc1cc(Nc2ncc3c(n2)N(C)CN(c2c(C)cccc2Cl)C3=O)ccc1N1CCN[C@H](C)C1 [Example 101, (R)-3-(2-chloro-6-methylphenyl)-7-((3-(methoxymethyl)-4-(3-methylpiperazin-1-yl)phenyl)amino)-1-methyl-2,3-dihydropyrimido[4,5-d]pyrimidin-4(1H)-one]
13 | 10 to 100 nM | – | Cc1cccc(Cl)c1N1CN(C)c2nc(Nc3ccc(N4CCNCC4)cc3)ncc2C1=O [Example 92, 3-(2-chloro-6-methylphenyl)-1-methyl-7-((4-(piperazin-1-yl)phenyl)amino)-2,3-dihydropyrimido[4,5-d]pyrimidin-4(1H)-one]
14 | 10 to 100 nM | – | CN1CN(c2c(F)cccc2Cl)C(=O)c2cnc(Nc3ccc(N4CCOCC4)c(CO)c3)nc21 [Example 57]
15 | 10 to 100 nM | – | CN1CN(c2c(Cl)cccc2Cl)C(=O)c2cnc(Nc3ccc(N4CC5COCC(C4)N5C)cc3)nc21 [Example 71, 3-(2,6-dichlorophenyl)-1-methyl-7-((4-(9-methyl-3-oxa-7,9-diazabicyclo[3.3.1]nonan-7-yl)phenyl)amino)-2,3-dihydropyrimido[4,5-d]pyrimidin-4(1H)-one]
16 | 10 to 100 nM | – | COc1cc(Nc2ncc3c(n2)N(C)CN(c2c(Cl)cccc2Cl)C3=O)ccc1N1C[C@@H]2C[C@H]1CN2 [Example 82, 7-((4-((1S,4S)-2,5-diazabicyclo[2.2.1]heptan-2-yl)-3-methoxyphenyl)amino)-3-(2,6-dichlorophenyl)-1-methyl-2,3-dihydropyrimido[4,5-d]pyrimidin-4(1H)-one]
17 | 10 to 100 nM | – | CN1CN(c2c(Cl)cccc2Cl)C(=O)c2cnc(Nc3ccc4c(c3)C3CCC(C4)N3)nc21 (stereo not drawn) [Example 70, 3-(2,6-dichlorophenyl)-1-methyl-7-((6,7,8,9-tetrahydro-5H-5,8-epiminobenzo[7]annulen-3-yl)amino)-2,3-dihydropyrimido[4,5-d]pyrimidin-4(1H)-one]
18 | 10 to 100 nM | – | C[C@@H]1CN(c2ccc(Nc3ncc4c(n3)N(C)CN(c3c(Cl)cccc3Cl)C4=O)cc2)C[C@H](C)N1C [Example 52, 3-(2,6-dichlorophenyl)-1-methyl-7-((4-((3R,5S)-3,4,5-trimethylpiperazin-1-yl)phenyl)amino)-2,3-dihydropyrimido[4,5-d]pyrimidin-4(1H)-one]
19 | 10 to 100 nM | – | C[C@@H]1CN[C@@H](C)CN1c1ccc(Nc2ncc3c(n2)N(C)CN(c2c(F)cccc2Cl)C3=O)cc1 [Example 93, 3-(2-chloro-6-fluorophenyl)-7-((4-((2R,5S)-2,5-dimethylpiperazin-1-yl)phenyl)amino)-1-methyl-2,3-dihydropyrimido[4,5-d]pyrimidin-4(1H)-one]
20 | 10 to 100 nM | – | C[C@@H]1CN(c2ccc(Nc3ncc4c(n3)N(C)CN(c3ccccc3Cl)C4=O)cc2F)CCN1 [Example 99, (R)-3-(2-chlorophenyl)-7-((3-fluoro-4-(3-methylpiperazin-1-yl)phenyl)amino)-1-methyl-2,3-dihydropyrimido[4,5-d]pyrimidin-4(1H)-one]
21 | ≥ 100 nM | – | CN1CN(c2ccccc2Cl)C(=O)c2cnc(Nc3ccc(N4CC5C[C@H]4CN5)cc3)nc21 (stereo in doubt) [Example 104, 7-((4-((1S,4R)-2,5-diazabicyclo[2.2.1]heptan-2-yl)phenyl)amino)-3-(2-chlorophenyl)-1-methyl-2,3-dihydropyrimido[4,5-d]pyrimidin-4(1H)-one]
22 | 10 to 100 nM | – | CN1CN(c2c(Cl)cccc2Cl)C(=O)c2cnc(Nc3ccc(N4CCOCC4)c(CO)c3)nc21 [Example 73, 3-(2,6-dichlorophenyl)-7-((3-(hydroxymethyl)-4-morpholinophenyl)amino)-1-methyl-2,3-dihydropyrimido[4,5-d]pyrimidin-4(1H)-one]

Row | Structure (SMILES) | IC50 (Wee-1 kinase) | microsomal CLint at 1 μM [1]
23 | CN1CN(c2ccccc2Cl)C(=O)c2cnc(Nc3ccc(N4CC5CCC(C4)N5C)c(CO)c3)nc21 [Example 97, 3-(2-chlorophenyl)-7-((3-(hydroxymethyl)-4-(8-methyl-3,8-diazabicyclo[3.2.1]octan-3-yl)phenyl)amino)-1-methyl-2,3-dihydropyrimido[4,5-d]pyrimidin-4(1H)-one] | 10 to 100 nM | ≤ 15 µL/min/mg
